Test results reported in patent US4062816A, “D-Ala^5 -somatostatin and intermediates thereto” (Eli Lilly and Company, priority 1976, dated 1977).

Columns and labels:
insulin = experiment: inhibition of insulin secretion in dogs during L-alanine infusion; format: in vivo, mongrel dogs; conditions: intravenous infusion 0.20-0.30 μg/kg/minute (D-Ala5-somatostatin 0.230 μg/kg/min.); fasted dogs
Experimental: (§1) The product from Example 4 also was tested for its activity in inhibiting glucagon and insulin secretion. Normal mongrel dogs of either sex were fasted overnight. Control blood samples were obtained, and then an intravenous infusion of saline, somatostatin, or D-Ala^5 -somatostatinwas started. After 30 minutes, L-alanine additionally was administered intravenously for a period of 15 minutes. The infusion of saline, somatostatin, of D-Ala^5 -somatostatin was continued for 15 minutes after completion of the alanine infusion. The total dose of somatostatin or D-Ala^5 -somatostatin which was infused is 200-500 μg/dog (0.20-0.30 μg/kg/ minute), and the total dose of L-alanine infused was 1 mmol.kg./15 minutes.

growth hormone = experiment: inhibition of the release of growth hormone in pentobarbital-stimulated rats; format: in vivo, Spraque-Dawley rats; conditions: 50 μg./rat, subcutaneously; sodium pentobarbital-stimulated; relative to saline control group
Experimental: The product from Example 4 was tested for its activity in inhibiting the release of growth hormone. The procedure which was employed is carried out using mature male Spraque-Dawley rats (Laboratory Supply Company, Indianapolis, Ind.). The test is a modification of the method of P. Brazeau, W. Vale, and R. Guillemen, Endocrinology, 94 184 (1974). In this assay, three groups of eight rats each were employed. First, sodium pentobarbital was administered to all […] rats to stimulate growth hormone secretion. One of the groups of eight rats is the control group and received only saline. A second of the groups received somatostatin at 50 μg./rat, subcutaneously. The third group received D-Ala^5 -somatostatin at 50 μg./rat, subcutaneously. The degree of inhibition of serum growth hormone concentration then was determined with respect to the control group, and the relative activities of D-Ala^5 -somatostatin and somatostatin itself were compared. At a dose level of 50 μg./rat, D-Ala^5 -somatostatin inhibited the increase in serum growth hormone concentration by 40-50 percent, while somatostatin itself produced a 90 percent inhibition.

glucagon = experiment: inhibition of glucagon secretion in dogs during L-alanine infusion; format: in vivo, mongrel dogs; conditions: intravenous infusion 0.20-0.30 μg/kg/minute (D-Ala5-somatostatin 0.230 μg/kg/min.); fasted dogs
Experimental: as §1

SMILES: C[C@H](N)C(=O)NCC(=O)N[C@H]1CSSC[C@@H](C(=O)O)NC(=O)[C@H](CO)NC(=O)[C@H]([C@@H](C)O)NC(=O)[C@H](Cc2ccccc2)NC(=O)[C@H]([C@@H](C)O)NC(=O)[C@H](CCCCN)NC(=O)[C@H](Cc2c[nH]c3ccccc23)NC(=O)[C@H](Cc2ccccc2)NC(=O)[C@H](Cc2ccccc2)NC(=O)[C@@H](C)NC(=O)[C@H](CCCCN)NC1=O [D-Ala^5 -somatostatin]
- effect on basal serum insulin concentration (before alanine infusion) (insulin): caused a brief increase in insulin concentration
- effect on the increase in insulin concentration/secretion produced by L-alanine (insulin): did not inhibit the increase in insulin secretion
- inhibition of the increase in serum growth hormone concentration (growth hormone): 40-50%
- effect on the increase in serum glucagon concentration produced by L-alanine (glucagon): did not affect the increase in serum glucagon concentration
